Experimental data from US20060234980A1, “Antiinflammatory agent, agent for preventing/ameliorating allergic diseases and functional food” (priority 2002, published 2006).

System: oral sensitization model of BALB/c mouse
Experiment: Oral sensitization model with OVA, oligosaccharide-added feeds, serum antigen-specific antibody titer (ELISA)
Type: in vivo
Details: 5% (w/w) in feed
Text: An oral sensitization model of BALB/c mouse using ovalbumin (OVA) as a model antigen was produced, and influences exerted by various oligosaccharides added to feed on serum antibody titer were compared. Until initiation of the experiment, 12-week old male BALM/c mice were allowed to freely take AIN-93G as a base feed (α-corn starch, 529.5 g/kg; casein, 200 g/kg; sucrose, 100 g/kg; soy bean oil, 70 g/kg; cellulose, 50 g/kg; mineral mixing, 35 g/kg; vitamin mixing, 10 g/kg; L-cystine, 3 g/kg; choline bitartarate, 2.5 g/kg) . After pre-breeding for 1 week, an oligosaccahide no-[…] (base seed) group, and feeds obtained by substituting 5% (w/w) of the base feed with raffinose (RAF), α-GOS (hereinafter, referred to simply as GOS), fructooligosaccharide (FOS), xylooligosaccharide (XOS), that is, five groups were prepared, and mice were allowed to freely take these feeds for 8weeks. During this, an aqueous OVA solution (1 mg/0.2 mL) was orally administered forcibly everyday. After initiation of aministration of OVA, blood was collected from orbital venous plexus every one week, and centrifugally separated to obtain sera. Sear of one group (9/group) were pooled, and subjected to quantification of antigen-specific antibody titer by ELISA.

## OC[C@H]1O[C@H](OC[C@H]2O[C@H](O[C@]3(CO)O[C@H](CO)[C@@H](O)[C@@H]3O)[C@H](O)[C@@H](O)[C@@H]2O)[C@H](O)[C@@H](O)[C@H]1O [RAF, raffinose]
8 weeks daily oral OVA
  effect on increase of IgE (overall conclusion): effect of delaying increase
  effect on increase of IgG (overall conclusion): effect of delaying increase
At 2 to 5 weeks
  antigen-specific IgG in blood: changed lower than the oligosaccharide no-addition feed group
At 8 weeks
  antigen-specific IgE in blood: showed the same high value as that of the FOS group
Until 7 weeks
  antigen-specific IgE in blood: changed lower than the oligosaccharide no-addition feed group and the FOS feed group
